# Reference: patent US8426438B2, “Heterocyclic-fused pyrazolo[4,3-c]pyridin-3-one M1 receptor positive allosteric modulators” (Merck Sharp & Dohme Corp., priority 2009, dated 2013)
# Target: T1, acetylcholine muscarinic M1 receptor (CHOnfat/hM1 cells) (Homo sapiens, UniProt P11229)
# T1 construct: expressed in transfected cells; host or cells: CHOnfat cells (CHO, Geneticin selection)
# T1 sequence (P11229 1-460): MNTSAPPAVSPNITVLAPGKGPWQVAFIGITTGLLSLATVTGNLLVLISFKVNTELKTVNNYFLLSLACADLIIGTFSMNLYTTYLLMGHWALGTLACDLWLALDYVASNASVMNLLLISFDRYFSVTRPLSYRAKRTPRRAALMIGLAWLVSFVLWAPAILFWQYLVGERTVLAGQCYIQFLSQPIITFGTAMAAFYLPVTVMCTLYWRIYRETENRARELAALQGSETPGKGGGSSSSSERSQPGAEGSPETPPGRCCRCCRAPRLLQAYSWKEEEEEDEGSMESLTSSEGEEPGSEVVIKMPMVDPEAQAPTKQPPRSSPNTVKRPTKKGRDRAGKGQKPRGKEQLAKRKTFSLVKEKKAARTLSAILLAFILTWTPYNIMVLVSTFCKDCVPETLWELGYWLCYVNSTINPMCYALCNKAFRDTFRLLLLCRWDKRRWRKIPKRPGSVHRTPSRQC
# Assay: muscarinic FLIPR intracellular calcium assay for M1 positive allosteric modulator activity (acetylcholine EC20)
# Type: cell-based
# Conditions: 4 min preincubation, then EC20 acetylcholine (3 nM final), read-out: IP Value (inflection point)
# Protocol: The assay studies the effect of one or several concentrations of test compounds on basal or acetylcholine-stimulated Ca^2+ levels using FLIPR.
# Compounds are prepared and subjected to a preincubation period of 4 min. Thereafter, a single EC20 concentration of acetylcholine is added to each well (3 nM final). The intracellular Ca^2+ level of each sample is measured and compared to an acetylcholine control to determine any modulatory activity.
# CHOnfat/hM1, hM2, hM3 or hM4 cells are plated 24 hr before the assay at a density of 18,000 cells/well (100 up in a 384 well plate. CHOnfat/hM1 and CHOnfat/hM3 Growth Medium: 90% DMEM (Hi Glucose); 10% HI FBS; 2 mM L-glutamine; 0.1 mM NEAA; Pen-Strep; and 1 mg/ml Geneticin, are added. For M2Gqi5CHOnfat and M4Gqi5CHOnfat cells, an additional 600 μg/ml hygrornycin is added.
# 384 well plate, 120 μL addition plate; 96-well Whatman 2 ml Uniplate Incubator, 37° C., 5% CO2; Skatron EMBLA-384 Plate Washer; Multimek Pipetting System; Genesis Freedom 200 System; Mosquito System; Temo Nanolitre Pipetting System; and FLIPR^384 Fluorometric Imaging Plate Reader System are used.
# Assay Buffer: Hanks Balanced Salt Solution, with 20 mM Hepes, 2.5 mM Probenecid (Sigma P-8761) first dissolved in 1 N NaOH, 1% Bovine Serum Albumin (Sigma A-9647). Dye Loading Buffer: Assay Buffer plus 1% Fetal Bovine Serum and Fluo-4AM/Pluronic Acid Mixture. 2 mM Fluo-4AM ester stock in DMSO (Molecular Probes F-14202) Concentration of 2 μM in buffer for a final concentration of 1 μM in Assay. 20% Pluronic Acid Solution stock, with concentration of 0.04% in Buffer, 0.02% in Assay.
# 65 μL of 2 mM Fluo-4AM are mixed with 130 μL of 20% Pluronic Acid. The resulting solution and 650 μL FBS is added to the assay buffer for a total volume of 65 mL. Positive Controls: 4-Br-A23187: 10 mM in DMSO; final concentration 10 μM. Acetylcholine: 10 mM in water, working stock at both 20 μM and 30 μM in assay buffer, final concentration of 10 μM. This is used to check the maximum stimulation of the CHOK1/hM1 cells. 20 μM (2×) acetylcholine is added in the preincubation part of the assay, and the 30 μM (3×) stock is added in the second part. (EC20) Acetylcholine: 10 mM in water, working stock of 9 nM (3×), and final concentration in assay is 3 nM. This is used after the preincubation with test compounds. Addition of the EC20 Acetylcholine to each well with a test compound will ascertain any modulator activity. 24 wells contain 3 nM Acetylcholine alone as a control.
# Compounds are titrated in 96-well plates (columns 2-11), 100% DMSO, started at a concentration of 15 mM (150× stock concentration), and 3-fold serial dilutions using Genesis Freedom200 System. Four 96-well plates are combined into a 384-well plate using Mosquito Nanolitre Pipetting System by transferring 1 μl of serial diluted compounds to each well, and 1 mM acetylcholine (100× stock concentration) were added as a control. Using Temo, 49 μl assay buffer is added to each well of the 384-well plate right before assay.
# In a 96-well Whatman 2 ml Uniplate, 9 nM Acetylcholine (3×) is pipetted into wells corresponding to the screening compounds, and into control wells. The 30 μM acetylcholine control (3×) is added into control wells, and the 3× agonist plate is transferred into a 384 well plate.
# Cells are washed three times with 100 μL of buffer, leaving […] of buffer in each well. Using Multimek, 30 μL of Dye Loading Buffer is added into each well and incubated at 37° C., 5% CO2 for up to one hr.
# After 60 min, the cells are washed three times with 100 μL of buffer, leaving 30 μL of buffer in each well. The cell plate, screening plate, and agonist addition plates are placed on the platform in the FLIPR and the door closed. A signal test to check background fluorescence and basal fluorescence signal is performed. Laser intensity is adjusted if necessary. […]
row,EC50,SMILES
1,1.3 µM,"O=c1c2cn(Cc3ccc(-n4cccn4)cc3)c3c(c-2nn1-c1ccccc1F)C(O)CCC3 (racemic) [Example 11, (±)-2-(2-Fluorophenyl)-9-hydroxy-5-{[4-(1H-pyrazol-1-yl)phenyl]methyl}-2,5,6,7,8,9-hexahydro-3H-pyrazolo[4,3-c]quinolin-3-one]"
2,0.16 µM,"O=c1c2cn(Cc3ccc(-n4cccn4)cc3)c3cccnc3c-2nn1-c1ccccc1F [Example 1, 2-(2-Fluorophenyl)-5-{[4-(1H-pyrazol-1-yl)phenyl]methyl}-2,5-dihydro-3H-pyrazolo[4,3-c]-1,5-naphthyridin-3-one]"
3,0.318 µM,"O=c1c2cn(Cc3ccc(-n4cccn4)cc3)c3ncccc3c-2nn1-c1ccccc1F [Example 2, 2-(2-Fluorophenyl)-5-{[4-(1H-pyrazol-1-yl)phenyl]methyl}-2,5-dihydro-3H-pyrazolo[4,3-c]-1,8-naphthyridin-3-one]"
4,7.67 µM,"O=c1c2cn(Cc3ccc(-n4cccn4)cc3)c3cnccc3c-2nn1-c1ccccc1F [Example 4, 2-(2-Fluorophenyl)-5-{[4-(1H-pyrazol-1-yl)phenyl]methyl}-2,5-dihydro-3H-pyrazolo[4,3-c]-1,7-naphthyridin-3-one]"
5,0.759 µM,"Cc1ccccc1-n1nc2c3nccnc3n(Cc3ccc(-n4cccn4)cc3)cc-2c1=O [Example 6, 2-(2-Methylphenyl)-5-{[4-(1H-pyrazol-1-yl)phenyl]methyl}-2,5-dihydro-3H-pyrazolo[3′,4′:4,5]-pyrido[2,3-b]pyrazin-3-one]"
6,0.77 µM,"O=c1c2cn(Cc3ccc(-n4cccn4)cc3)c3c(c-2nn1-c1ccccc1F)CCC3 [Example 8, 2-(2-Fluorophenyl)-5-{[4-(1H-pyrazol-1-yl)phenyl]methyl}-5,6,7,8-tetrahydrocyclopenta[b]pyrazolo[3,4-d]pyridine-3(2H)-one]"
7,0.36 µM,"O=c1c2cn(Cc3ccc(-n4cccn4)cc3)c3c(c-2nn1-c1ccccc1F)CCCC3 [Example 9, 2-(2-Fluorophenyl)-5-{[4-(1H-pyrazol-1-yl)phenyl]methyl}-2,5,6,7,8,9-hexahydro-3H-pyrazolo[3,4-d]pyridine-3(2H)-one]"
8,0.02 µM,"O=c1c2cn(Cc3ccc(-n4cccn4)cc3)c3ccsc3c-2nn1-c1ccccc1F [Example 12, 2-(2-Fluorophenyl)-5-{[4-(1H-pyrazol-1-yl)phenyl]methyl}-2,5-dihydro-3H-pyrazolo[4,3-d]thieno[3,2-b]pyridin-3-one]"
9,0.108 µM,"Cc1ccccc1-n1nc2c3sccc3n(Cc3ccc(-n4cccn4)cc3)cc-2c1=O [Example 13, 2-(2-Methylphenyl)-5-{[4-(1H-pyrazol-1-yl)phenyl]methyl}-2,5-dihydro-3H-pyrazolo[3,4-d]thieno[3,2-b]pyridin-3-one]"
10,0.065 µM,"O=c1c2cn(Cc3ccc(-n4cccn4)cc3)c3ccsc3c-2nn1-c1c(Cl)cncc1Cl [Example 15, 2-(3,5-Dichloropyridin-4-yl)-5-{[4-(1H-pyrazol-1-yl)phenyl]methyl}-2,5-dihydro-3H-pyrazolo[3,4-d]thieno[3,2-b]pyridin-3-one]"
